One test relates to FRT QXN UGAC cells. Description: Confirmatory dual luciferase assay (firefly/Renilla ratio). It counts as cell-based, Rat. Conditions: for FRT UGAC Dual Luciferase Firefly/Renilla Mean ± SD: 10 μM unless otherwise indicated. On the procedure:
The basic features of the dual luciferase reporter system have been described previously (Grentzmann G, et al., RNA; 4: 479-486, 1998). […] These constructs were grown in the presence of lead compounds, vehicle control (0.3% DMSO), or positive control (250 μg/mL G418) for 24 hrs and the assay was performed as previously described (Xue X, et al., American journal of respiratory cell and molecular biology; 50: 805-816; 2014).
In this assay, an increase in the luciferase ratio indicates the compounds stimulated read-through of the PTC in the constructs tested. FRT QXN UGAC cells were incubated with compound (0.01 μM to 10 μM), G418 (250 μg/mL) or vehicle control (0.3% DMSO) for 48 hours.

The next test relates to FRT G542X^HRP cells. The test can be described thus: Horse radish peroxidase (HRP) CFTR cell surface expression assay, G542X. It is filed as cell-based, Rat. The note with it: 48 hours; for FRT G542X HRP RLU Mean ± SE / HRP activity (CFTR cell surface expression) compared to vehicle control: 10 μM. How it is done:
(§1) To measure cell surface expression of CFTR, FRT cells expressing the fusion protein of G542X CFTR and HRP were treated with 10 μM of lead compounds for 48 hours at 37° C. and 5% CO2. Holding DMSO concentration at 0.3%, FRT cells were washed 4 times in PBS supplemented with 1 mM MgCl2 and 0.1 mM CaCl2 and then incubated with the HRP substrate (Fisher, #PI-34096, 15 μl/well) at room temperature for 10 minutes. The luminescent HRP signal was analyzed via a Synergy NEO microplate reader (BioTek Instruments).
To obtain an additional readout of CFTR function, the effect of the lead compounds on CFTR cell surface expression was evaluated using the HRP assay. FTR G542X cells were incubated with compound (10 μM), G418 (250 μg/mL) or vehicle control (0.3% DMSO) for 48 hours prior to determination of HRP activity. In this assay, an increase in HRP activity indicates the compounds stimulated read-through of the PTC in the constructs tested.

The test system of a further test is FRT W1282X^HRP cells. Description: HRP CFTR expression assay, W1282X. It counts as cell-based, Rat. Conditions: 48 hours; escin 10 μM, VX-809 3 μM. How it is done: as §1
(§2) The effect of the read-through stimulating compounds of the present disclosure in combination with the CFTR corrector VX-809 was further examined in FRT cells with the G542X, Y122X and W1282X mutations. Enhancement of PTC read-through by the compounds of the present disclosure was determined by an increase in CFTR conductance (FIGS. 13A-13C) or an increase in CFTR protein expression at the cell surface (FIGS. 14A-14C). CFTR conductance also indicated the CFTR was functional as a result of the read-through of the PTC.

A further test concerns FRT Y122X^HRP cells. Description: HRP CFTR expression assay, Y122X. It counts as cell-based, Rat. Conditions: 48 hours; escin 10 μM, VX-809 3 μM. How it is done:
as §1, §2

Another test has as its system FRT W1282X cells. Description: Transepithelial chloride conductance assay in FRT W1282X cells. Conditions: 48 hours; escin 10 μM, VX-809 3 μM, GP-5 10 μM, C1+C2 10 μM. It is filed as cell-based, Rat. On the procedure: Stably transfected FRT cells as described herein cells were seeded onto Costar 24-well […] permeable supports at a density of ˜2×10^6 cells/filter and maintained at 37° C. with 5% CO2. Transepithelial resistance was assessed using an epithelial voltmeter to ensure the formation of tight monolayers, as defined by resistance >6 kcm^2. During initial evaluation of agents, cells were treated with compounds (10 μM), vehicle control (0.3% DMSO), or positive control (250 μg/mL G418) for 48 hours before transepithelial conductance (Gt) was assessed; subsequent studies used other concentrations of compounds. Measurements were taken at baseline, after the addition of 20 μM forskolin (FSK, a cAMP agonist that stimulates CFTR activity) and 10 μM CFTRInh-172 (a CFTR-specific inhibitor).
(§3) Individual assays were performed as described herein.
As previously reported in the literature, the combination of CFTR correctors (such as VX-809) and CFTR potentiators (such as VX-770) act synergistically to improve CFTR function. […] Compounds alone or in the indicated combination were pre-incubated with FRT W1282X cells for 48 hours. During the assay the baseline conductance (Gt) was initially determined prior to the acute addition of forskolin (20 μM) and VX-770 (10 μM) to stimulate CFTR activity; the CFTR inhibitor, CFTRInh-172 (10 μM), was added to inhibit CFTR activity at the end of the assay. Enhancement of PTC read-through by the compounds of the present disclosure was determined by an increase in CFTR conductance. CFTR conductance also indicated the CFTR was functional as a result of the read-through of the PTC.
Compounds alone or in the indicated combination were pre-incubated with FRT G542X cells for 48 hours. […] Enhancement of PTC read-through by the compounds of the present disclosure was determined by an increase in CFTR conductance. CFTR conductance also indicated the CFTR was functional as a result of the read-through of the PTC.
It has been reported that aminoglycosides interfere with the action read-through stimulating compound. […] CFTR conductance also indicated the CFTR was functional as a result of the read-through of the PTC.
Stimulation of CFTR activity was determined by an increase in CFTR conductance. […] During the assay the baseline conductance (Gt) was initially determined prior to the acute addition of forskolin (20 μM) and GP-5 (10 μM) to stimulate CFTR activity; the CFTR inhibitor, […] (10 μM), was added to inhibit CFTR activity at the end of the assay.
The effect of the read-through stimulating compounds of the present disclosure in combination with the CFTR corrector VX-809 was further examined in FRT cells with the G542X, Y122X and W1282X mutations. […] CFTR conductance also indicated the CFTR was functional as a result of the read-through of the PTC.

The subject of the next test is HBE ΔF508/ΔF508 cells. Description: Ussing chamber Isc in primary HBE ΔF508/ΔF508 cells. Conditions: escin 10 μM, VX-809 6 μM; 48 hours. It counts as cell-based, Human. On the procedure: Short circuit current (Isc) was measured under voltage clamp conditions as previously described (Rowe S M, et al., J Mol Med (Berl); 89: 1149-1161; 2011). Briefly, primary HBE cells as described herein were seeded on Costar […] permeable supports (5.3×10^5 cells/filter, 6.5 mm diameter; Bethesda, Md.) after coating with fibroblast-conditioned media (Liu X, et al., Am J Pathol; 180: 599-607, 2012). Well-differentiated cells were treated with compounds for 48 hours and Isc measurements were obtained by using an epithelial voltage clamp apparatus in Ussing chambers (Physiologic Instruments). After measuring the baseline Isc, amiloride (100 μM) was added to block the epithelial sodium channel activity followed by the addition of CFTR agonists (20 μM FSK and 10 μM VX-770). CFTRInh-172 (10 μM) was added at the end of experiment to block CFTR-dependent Isc. DMSO (0.1%) and G418 (250 μg/mL) served as vehicle and positive controls, respectively.
as §3

`COc1cccc2c1C(=O)c1c(O)c3c(c(O)c1C2=O)C[C@@](O)(C(=O)CO)C[C@@H]3O[C@H]1C[C@H](N)[C@H](O)[C@H](C)O1` [Doxorubicin, DOXORUBICIN]: the “concentration at which dual luciferase activity peaked” value in the test with FRT QXN UGAC cells (0.01 μM to 10 μM, 48 hours) was around 1 µM. Further, the “FRT UGAC Dual Luciferase Firefly/Renilla Mean ± SD” value with FRT QXN UGAC cells is recorded as 1.99 ± 0.007. Moreover, in the test on FRT G542X^HRP cells, the “FRT G542X HRP RLU Mean ± SE” value turned out to be 26269 ± 1426 RLU and the “HRP activity (CFTR cell surface expression) compared to vehicle control” value (from here on “HRP activity … compared to vehicle control”) was “significantly higher”.

On to `Cc1ccc(NC(=O)C2(c3ccc4c(c3)OC(F)(F)O4)CC2)nc1-c1cccc(C(=O)O)c1` [VX-809], for which the “CFTR protein expression at the cell surface” value is “significant stimulatory effects” with FRT W1282X^HRP cells; “significant stimulatory effects” in the test on FRT Y122X^HRP cells; “significant stimulatory effects” in the test with FRT G542X^HRP cells (escin 10 μM, VX-809 3 μM). Besides, the “CFTR stimulation (conductance) in the presence of forskolin and GP-5” value in the test with FRT W1282X cells is listed as “varying stimulatory effects”. Further, in the test with HBE ΔF508/ΔF508 cells, the “forskolin/VX-770 dependent Isc” value is “significant increase”.

For `C[C@@H]1C[C@@H]([C@H](O)CC2CC(=O)NC(=O)C2)C(=O)[C@@H](C)C1` [Cyclohexamide, CYCLOHEXIMIDE], the “FRT UGAC Dual Luciferase Firefly/Renilla Mean ± SD” value in the test with FRT QXN UGAC cells worked out at 1.81 ± 0.01. Further, in the test with FRT G542X^HRP cells, the “FRT G542X HRP RLU Mean ± SE” value came out at 38171 ± 1618 RLU and the “HRP activity … compared to vehicle control” value is reported as “significantly higher”.

On to `CCCOc1ccc2nc(NC(=O)OC)[nH]c2c1` [Oxibendazole, OXIBENDAZOLE], for which the “FRT UGAC Dual Luciferase Firefly/Renilla Mean ± SD” value with FRT QXN UGAC cells is 1.34 ± 0.01. In the test on FRT G542X^HRP cells, the “FRT G542X HRP RLU Mean ± SE” value is reported as 28150 ± 908.6 RLU and the “HRP activity … compared to vehicle control” value is “significantly higher”.

The values are drawn from patent publication US10960018B2, “Methods and compounds for stimulating read-through of premature termination codons” (The UAB Research Foundation, priority 2016, dated 2021).
